One assay concerns the target T1, Cbl-b (Homo sapiens, UniProt Q13191).
T1 construct: biotin (biotinylated)
As to the kind of experiment: Cbl-b probe displacement HTRF binding assay. The conditions noted are these: 0.4 nM biotinylated Cbl-b, 150 nM BODIPY probe. How it is done:
The affinity with which compounds of the present disclosure bind to Cbl-b was assessed using probe displacement homologous time resolved fluorescence (HTRF) assays. The assays used a BODIPY™ conjugated probe (Example 54 from WO 2020264398) and biotinylated Cbl-b. The assays were performed in assay buffer consisting of 20 mM Hepes, 150 mM NaCl, 0.01% Triton X-100, 0.5 mM TCEP, 0.01% BSA. On the day of the assay, a 20 point, 1:2 master serial dilution of each compound was prepared in DMSO to span a final concentration range of 10 μM to 0 nM. Two hundred nanoliters of diluted compound was added to each well of a 384-well plate. Fifteen microliters of biotinylated—Cbl-b resuspended in assay buffer were added to each well and the plate incubated for 60 minutes at room temperature prior to addition of 5 μL of BODIPY™ probe in assay buffer. Final assay conditions included 0.4 nM of Cbl-b and 150 nM of BODIPY™ probe. After a further 15 minutes of incubation at room temperature, 5 μl of Streptavidin-Terbium cryptate reagent at 5-fold final concentration was added to each well of the 384-well plate. Binding of a probe to Cbl-b results in an increase of HTRF signal. HTRF signal was measured by Envision plate reader, while competition of a compound of the present disclosure with probe results in a decrease of signal. Percentage maximum activity in each test well was calculated based on DMSO (maximum activity, 0% displacement) and no protein control wells (baseline activity, 100% displacement). Binding affinity was determined from a dose response curve fitted using a standard four parameter fit equation. See Table 3 for data for compounds (Cbl-b Binding (IC50)).
For orientation: Time-resolved FRET reads energy transfer from a long-lived donor to a nearby acceptor.

Another assay relates to Jurkat cells. Put plainly: IL-2 secretion assay in CD3/CD28-activated Jurkat cells (AlphaLISA). The format is cell-based, human. The conditions noted are these: Homo sapiens, CD3/CD28 T Cell Activator, 24 h, IL-2 AlphaLISA. On the procedure:
Certain compounds were also evaluated in an IL-2 secretion assay. On the day of the assay, a 16 point, 1:2 master serial dilution of each compound was prepared in Opti-MEM to span a final concentration range of 10 μM to 300 pM. Assays were setup in CORNING® tissue culture-treated 384-well microplates containing 60 nL of each dilution. Jurkat cells grown in RPMI-1640 supplemented with 10% FBS, 1% Glutamax, and 1% Pen/Strep were collected, resuspended in Opti-MEM. 50,000 cells/well and added to the compound plates. After a short spin (1200 rpm for 1 min), the plates were incubated at 37° C. for 1 hour. The cells were activated by adding 15 μL of IMUNOCULT™ Human CD3/CD28 T Cell Activator (STEMCELL Technologies) diluted in Opti-MEM. After 24 h of incubation at 37° C., aliquots of culture supernatants were transferred to OptiPlate-384 (PerkinElmer) microplates. The level of IL-2 secretion in the supernatants was then determined using the IL-2 (human) AlphaLISA Detection Kit (PerkinElmer) according to the manufacturer's recommendations. The AlphaLISA signal was measured using an EnVision plate reader (PerkinElmer). EC50 values were determined by fitting the data to a standard 4-parameter logistic equation. See Table 3 for data for select compounds (IL-2 Secretion (EC50)).
A general note: In Alpha technology, singlet oxygen from a donor bead excites a nearby acceptor bead.

IC50 and EC50 data for 16 compounds are collected here from patent US20250011318A1 (ARCUS BIOSCIENCES, INC., priority 2023, published 2025).

Each structure is given as a SMILES string. Where only a bound is given, the exact number is not on record here.

One may read the IC50 as the concentration that inhibits the measured activity by half. A lower IC50 goes with greater potency. What is called EC50 is the concentration giving half of the maximal effect. Low values mean higher potency in that assay, high ones lower potency in that assay.

T1 sequence (Q13191 whole entry, species assumed): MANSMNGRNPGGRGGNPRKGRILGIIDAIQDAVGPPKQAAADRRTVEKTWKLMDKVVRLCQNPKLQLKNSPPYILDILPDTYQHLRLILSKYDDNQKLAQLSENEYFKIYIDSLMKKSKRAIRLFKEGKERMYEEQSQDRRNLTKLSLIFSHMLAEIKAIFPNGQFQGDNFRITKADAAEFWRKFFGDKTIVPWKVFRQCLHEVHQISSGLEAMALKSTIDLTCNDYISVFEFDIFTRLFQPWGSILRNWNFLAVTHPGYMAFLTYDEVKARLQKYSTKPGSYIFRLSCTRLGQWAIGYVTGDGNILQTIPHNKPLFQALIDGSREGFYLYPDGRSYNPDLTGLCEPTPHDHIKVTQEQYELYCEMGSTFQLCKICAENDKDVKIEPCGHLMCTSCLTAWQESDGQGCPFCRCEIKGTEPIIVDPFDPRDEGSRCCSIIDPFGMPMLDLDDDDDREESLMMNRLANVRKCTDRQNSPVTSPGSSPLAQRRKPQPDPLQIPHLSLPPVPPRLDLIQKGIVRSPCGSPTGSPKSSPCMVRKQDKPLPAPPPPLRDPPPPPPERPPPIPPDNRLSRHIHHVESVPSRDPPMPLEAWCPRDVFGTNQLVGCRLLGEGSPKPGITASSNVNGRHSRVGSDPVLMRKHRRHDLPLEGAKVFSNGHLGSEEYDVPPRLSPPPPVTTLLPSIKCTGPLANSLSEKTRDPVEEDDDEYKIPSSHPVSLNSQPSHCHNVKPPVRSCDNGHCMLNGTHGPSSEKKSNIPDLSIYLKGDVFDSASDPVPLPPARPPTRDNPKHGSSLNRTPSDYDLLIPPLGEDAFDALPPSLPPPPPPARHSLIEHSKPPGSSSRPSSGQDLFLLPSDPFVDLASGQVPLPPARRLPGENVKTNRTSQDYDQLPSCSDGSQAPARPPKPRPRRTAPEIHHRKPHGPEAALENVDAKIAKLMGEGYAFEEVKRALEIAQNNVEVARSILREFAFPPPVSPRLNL

With `Cn1cnnc1-c1cc(F)ccc1-c1cc(C2CC2)nc(-n2cc(C#N)c3c(C#N)n[nH]c3c2=O)c1` [Example 27, 6-{6-cyclopropyl-4-[4-fluoro-2-(4-methyl-4H-1,2,4-triazol-3-yl)phenyl]-2-pyridyl}-7-oxo-1,6-dihydro-1,2,6-triaza-3,4-indenedicarbonitrile], the half-inhibitory concentration (IC50) on Cbl-b lay in the range of 100 to 1000 nM. Moreover, in the assay with Jurkat cells, the EC50 is above 5000 nM.
At Cbl-b, `COCCNCc1cc2ncn(-c3cc(-c4ccc(F)cc4-c4nncn4C)cc(C4CC4)n3)c(=O)c2[nH]1` [Example 28, 3-[6-cyclopropyl-4-[4-fluoro-2-(4-methyl-1,2,4-triazol-3-yl)phenyl]pyridin-2-yl]-6-[(2-methoxyethylamino)methyl]-5H-pyrrolo[3,2-d]pyrimidin-4-one] registered an IC50 below 100 nM. This compound also had an EC50 in the assay on Jurkat cells below 100 nM.
Compound `Cn1cnnc1-c1cc(F)ccc1-c1cc(C2CC2)nc(-n2cnc3cc(CNC4(C)CCC4)[nH]c3c2=O)c1` [Example 29, 3-[6-cyclopropyl-4-[4-fluoro-2-(4-methyl-1,2,4-triazol-3-yl)phenyl]pyridin-2-yl]-6-[[(1-methylcyclobutyl)amino]methyl]-5H-pyrrolo[3,2-d]pyrimidin-4-one] yielded an IC50 on Cbl-b below 100 nM. Moreover, in the assay with Jurkat cells, the EC50 is below 100 nM.
The compound `Cn1cnnc1-c1cc(F)ccc1-c1cc(C2CC2)nc(-n2cnc3cc(CNCCOC(F)(F)F)[nH]c3c2=O)c1` [Example 30, 6-{6-cyclopropyl-4-[4-fluoro-2-(4-methyl-4H-1,2,4-triazol-3-yl)phenyl]-2-pyridyl}-2-[(2-trifluoromethoxyethylamino)methyl]-1,6-dihydro-1,4,6-triaza-7-indenone] yielded an IC50 on Cbl-b below 100 nM. The same compound had an EC50 with Jurkat cells of 100 to 1000 nM.
For `CCOCCNCc1cc2ncn(-c3cc(-c4ccc(F)cc4-c4nncn4C)cc(C4CC4)n3)c(=O)c2[nH]1` [Example 31, 6-{6-cyclopropyl-4-[4-fluoro-2-(4-methyl-4H-1,2,4-triazol-3-yl)phenyl]-2-pyridyl}-2-[(2-ethoxyethylamino)methyl]-1,6-dihydro-1,4,6-triaza-7-indenone], in that order: below 100 nM and below 100 nM.
Consider `COC1CN(Cc2cc3ncn(-c4cc(-c5ccc(F)cc5-c5nncn5C)cc(C5CC5)n4)c(=O)c3[nH]2)C1` [Example 32, 6-{6-cyclopropyl-4-[4-fluoro-2-(4-methyl-4H-1,2,4-triazol-3-yl)phenyl]-2-pyridyl}-2-[(3-methoxy-1-azetidinyl)methyl]-1,6-dihydro-1,4,6-triaza-7-indenone], for which, on Cbl-b, the IC50 was below 100 nM. The EC50 with Jurkat cells was in the range of 100 to 1000 nM.
The matching figures for `Cn1cnnc1-c1cc(F)ccc1-c1cc(C2CC2)nc(-n2cnc3cc(CNCC(F)(F)F)[nH]c3c2=O)c1` [Example 33, 6-{6-cyclopropyl-4-[4-fluoro-2-(4-methyl-4H-1,2,4-triazol-3-yl)phenyl]-2-pyridyl}-2-[(2,2,2-trifluoroethylamino)methyl]-1,6-dihydro-1,4,6-triaza-7-indenone]: below 100 nM and 100 to 1000 nM.
For `COCCN(C)Cc1cc2ncn(-c3cc(-c4ccc(F)cc4-c4nncn4C)cc(C4CC4)n3)c(=O)c2[nH]1` [Example 34, 3-[6-cyclopropyl-4-[4-fluoro-2-(4-methyl-1,2,4-triazol-3-yl)phenyl]pyridin-2-yl]-6-[[2-methoxyethyl(methyl)amino]methyl]-5H-pyrrolo[3,2-d]pyrimidin-4-one], in that order: below 100 nM and below 100 nM.
The matching figures for `COCCN(Cc1cc2ncn(-c3cc(-c4ccc(F)cc4-c4nncn4C)cc(C4CC4)n3)c(=O)c2[nH]1)CC(F)(F)F` [Example 35, 6-{6-cyclopropyl-4-[4-fluoro-2-(4-methyl-4H-1,2,4-triazol-3-yl)phenyl]-2-pyridyl}-2-{[(2-methoxyethyl)(2,2,2-trifluoroethyl)amino]methyl}-1,6-dihydro-1,4,6-triaza-7-indenone]: below 100 nM and 100 to 1000 nM.
For `COCCNC(c1cc2ncn(-c3cc(-c4ccc(F)cc4-c4nncn4C)cc(C4CC4)n3)c(=O)c2[nH]1)C(F)(F)F` (centres unmarked) [Example 36, 6-{6-cyclopropyl-4-[4-fluoro-2-(4-methyl-4H-1,2,4-triazol-3-yl)phenyl]-2-pyridyl}-2-[2,2,2-trifluoro-1-(2-methoxyethylamino)ethyl]-1,6-dihydro-1,4,6-triaza-7-indenone], the IC50 at Cbl-b was below 100 nM. The same compound returned an EC50 in the assay on Jurkat cells of 100 to 1000 nM.
`Cn1cnnc1-c1cc(C#N)ccc1-c1cc(C2CC2)nc(-n2cc(C3CC3)c3cc(CNC4(C)CCC4)[nH]c3c2=O)c1` [Example 37, 4-(6-cyclopropyl-2-{4-cyclopropyl-2-[(1-methylcyclobutylamino)methyl]-7-oxo-1,6-dihydro-1,6-diaza-6-indenyl}-4-pyridyl)-3-(4-methyl-4H-1,2,4-triazol-3-yl)benzonitrile] had an IC50 on Cbl-b below 100 nM. This compound also registered an EC50 in the assay on Jurkat cells below 100 nM.
`COCCOCc1cc2ncn(-c3cc(-c4ccc(F)cc4-c4nncn4C)cc(C4CC4)n3)c(=O)c2[nH]1` [Example 38, 6-{6-cyclopropyl-4-[4-fluoro-2-(4-methyl-4H-1,2,4-triazol-3-yl)phenyl]-2-pyridyl}-2-[(2-methoxyethoxy)methyl]-1,6-dihydro-1,4,6-triaza-7-indenone] came in with an IC50 at Cbl-b below 100 nM. Further, the EC50 in the assay with Jurkat cells fell in the range of 100 to 1000 nM.
For the compound `Cn1cnnc1-c1cc(F)ccc1-c1cc(C2CC2)nc(-n2cc(C(F)(F)F)c3nc(C4CC4)[nH]c3c2=O)c1` [Example 39, 2-cyclopropyl-5-[6-cyclopropyl-4-[4-fluoro-2-(4-methyl-1,2,4-triazol-3-yl)phenyl]pyridin-2-yl]-7-(trifluoromethyl)-3H-imidazo[4,5-c]pyridin-4-one], on Cbl-b, the IC50 is below 100 nM. Besides, the EC50 in the assay with Jurkat cells is below 100 nM.
`Cn1cnnc1-c1cc(F)ccc1-c1cc(C2CC2)nc(-n2cc(C(F)(F)F)c3nc(C4CCC4)[nH]c3c2=O)c1` [Example 40, 2-Cyclobutyl-5-[6-cyclopropyl-4-[4-fluoro-2-(4-methyl-1,2,4-triazol-3-yl)phenyl]pyridin-2-yl]-7-(trifluoromethyl)-3H-imidazo[4,5-c]pyridin-4-one] returned an IC50 on Cbl-b below 100 nM. Moreover, the EC50 in the assay on Jurkat cells is below 100 nM.
For the compound `COCCCc1nc2c(C(F)(F)F)cn(-c3cc(-c4ccc(F)cc4-c4nncn4C)cc(C4CC4)n3)c(=O)c2[nH]1` [Example 41, 5-{6-Cyclopropyl-4-[4-fluoro-2-(4-methyl-4H-1,2,4-triazol-3-yl)phenyl]-2-pyridyl}-2-(3-methoxypropyl)-7-(trifluoromethyl)-3,5-dihydro-1,3,5-triaza-4-indenone], the IC50 at Cbl-b is below 100 nM. Further, the EC50 with Jurkat cells was below 100 nM.
Take `Cn1cnnc1-c1cc(F)ccc1-c1cc(C2CC2)nc(-n2cc(C(F)(F)F)c3nc(CC4CCC4)[nH]c3c2=O)c1` [Example 42, 2-(Cyclobutylmethyl)-5-{6-cyclopropyl-4-[4-fluoro-2-(4-methyl-4H-1,2,4-triazol-3-yl)phenyl]-2-pyridyl}-7-(trifluoromethyl)-3,5-dihydro-1,3,5-triaza-4-indenone]: on Cbl-b, the IC50 is below 100 nM. The compound further showed an EC50 with Jurkat cells below 100 nM.
